Entries after “also recorded” stand apart in the source; their conditions may differ.
Legend:
[1] = biological target: T1, BRAG2 binding to PIP2-containing liposomes (Homo sapiens, UniProt Q6DN90); assay: Liposome flotation assay
T1 construct: human BRAG2^Sec7 (390-594) and BRAG2^Sec7PH (390-811); made in house
Method: FIG. 4. Bragsin is a non-competitive inhibitor of protein-membrane interactions • a. Bragsin1 (in violet) overlaps with the canonical phosphoinositide-binding site of the PH domain of BRAG2. IP3 (in red) is from the GRP1-IP3 complex (DiNitto, J. P. et al. Structural basis and mechanism of autoregulation in 3-phosphoinositide-dependent Grp1 family Arf GTPase exchange factors. Mol Cell 28, 569-83 (2007)). The position of the membrane is indicated by an arrow. • b. […] Binding was measured by liposome flotation. U: bottom fraction, containing unbound proteins; B: top fraction, containing liposome-bound proteins. […] Quantification is shown below. • c. Inhibition of BRAG2 by Bragsin2 is stronger in the presence of liposomes that contain PIP2 lipids. Kinetics were measured as in FIG. 2b.
Bragsin may partially overlap with a lipid bound at this position was predicted by comparison of the PH domain of a cytohesin ArfGEF with a phosphoinositide headgroup bound to the canonical lipid-binding site (DiNitto, J. P. et al. Mol Cell 28, 569-83 (2007))(FIG. 4a). Bragsin inhibition could act by blocking the interaction of BRAG2 with membranes. […] Alternatively, Bragsin may bind at the interface between the PH domain and the membrane if inhibition is sensitive to the lipid composition of the membrane. […]

[2] = biological target: T2, BRAG2 (BRAG2^Sec7PH) (Homo sapiens, UniProt Q6DN90); assay: Nucleotide exchange kinetics on liposomes, activation of myristoylated Arf1; format: biochemical
T2 construct: human BRAG2^Sec7 (390-594) and BRAG2^Sec7PH (390-811); made in house
Method: The effect of Bragsin1 on the GEF efficiency of representative human ArfGEFs was evaluated by fluorescence kinetics using highly purified recombinant Arf GTPases and ArfGEFs. In a first series of assays, the Sec7 domains of BIG1, a Golgi ArfGEF, and of ARNO, EFA6a and BRAG2, which function at the plasma membrane, were used. When tested in solution, Bragsin1 had no effect on the activation of Arf1 by any of these Sec7 domains (FIGS. 2a and 14). Separately, we reconstituted the activation of myristoylated Arf1 by the same ArfGEFs on liposomes using ArfGEF constructs that contain a membrane-binding domain (DCB-HUS domain for BIG1, PH domains for the other GEFs). […] BRAG2 activates several Arf isoforms, including the plasma membrane-located Arf6 isoform. […] Bragsin1 and Bragsin2 have the same IC50 towards BRAG2 ([…]) according to dose-response analysis, confirming that Bragsin1 and Bragsin2 can be used interchangeably (FIG. 2d). The specific inhibition of BRAG2 by Bragsin in vitro predicts that BRAG2 silencing by siRNA should yield the same phenotype as treatment by the small molecule. Silencing of BRAG2 induced the redistribution of TGN46 into tubular or punctate structures, which phenocopied the effects induced by Bragsin (FIGS. 2e, 17 and 18). […] Silencing of ARNO, which is located at the plasma membrane, had no effect on TGN46 distribution. Overexpression of BRAG2-mCherry rescued the dispersion of the TGN46 structure induced by Bragsin, which is consistent with the silencing experiments (FIG. 2f). Bragsin is a specific inhibitor of the ArfGEF BRAG2 in vitro and in cells according to these experiments. These oexperiments identify a mechanism of inhibition that requires the membrane to manifests itself.
Bovine Δ17Arf1 and human Δ13Arf6, full-length myristoylated Arf1 and Arf6, human BRAG2^Sec7 (390-594) and BRAG2^Sec7PH (390-811), human EFA6^Sec7 (527-727) and EFA6^Sec7PHCt (527-1024), ARNO^Sec7 (50-256), BIG1^Sec7 (691-889), BIG1^DcbHusSec7 (2-888) and ARNO^Sec7PH (50-399) were expressed and purified as in (Benabdi, S. et al. Family-wide Analysis of the Inhibition of Arf Guanine Nucleotide Exchange Factors with Small Molecules: Evidence of Unique Inhibitory Profiles. Biochemistry 56, 5125-5133 (2017)) and references therein. BRAG2^Sec7PH mutants were purified as the wild type protein. Purification of human full-length Rac1 carrying a 6xHis tag in C-terminus and human TRIO^DH1PH1 (1232-1550) was described in (Peurois, F. et al. Characterization of the activation of small GTPases by their GEFs on membranes using artificial membrane tethering. Biochem J 474, 1259-1272 (2017)).
Lipids (of natural origin) were from Avanti Polar Lipids, except NBD-PE from Sigma. Liposomes were prepared as described in (Aizel, K. et al. Integrated conformational and lipid-sensing regulation of endosomal ArfGEF BRAG2. PLOS Biol 11, e1001652 (2013)) and extruded at 0.2 μm. For the Arf GEF specificity studies, liposomes contained 48% phosphatidylcholine (PC), 20% phosphatidylethanolamine (PE), 30% phosphatidylserine (PS) and 2% phosphatidylinositol-4,5-bisphosphate (PIP2). For Rac activation assay, liposomes contained 43% PC, 20% PE, 10% PS, 20% cholesterol, 2% PIP2, 5% NiNTA lipids and 0.2% NBD-PE. To exclude aggregation or disruption of the liposomes, their size distribution was controlled before and after experiments by dynamic light scattering as described in (Benabdi, S. et al. Biochemistry 56, 5125-5133 (2017)). Dose-response and flotation assays were carried out with liposomes containing 37.9% PC, 20% PE, 20% PS, 2% PIP2, 20% cholesterol and 0.1% NBD-PE. Flotation assays were carried out as in 18.
Nucleotide exchange kinetics were monitored by tryptophan fluorescence with excitation/emission wavelengths of 292/340 nm using a Cary Eclipse fluorimeter (Varian) at 37° C. and under continuous stirring as described in ^50,51. […]

T2 sequence (Q6DN90 512-933): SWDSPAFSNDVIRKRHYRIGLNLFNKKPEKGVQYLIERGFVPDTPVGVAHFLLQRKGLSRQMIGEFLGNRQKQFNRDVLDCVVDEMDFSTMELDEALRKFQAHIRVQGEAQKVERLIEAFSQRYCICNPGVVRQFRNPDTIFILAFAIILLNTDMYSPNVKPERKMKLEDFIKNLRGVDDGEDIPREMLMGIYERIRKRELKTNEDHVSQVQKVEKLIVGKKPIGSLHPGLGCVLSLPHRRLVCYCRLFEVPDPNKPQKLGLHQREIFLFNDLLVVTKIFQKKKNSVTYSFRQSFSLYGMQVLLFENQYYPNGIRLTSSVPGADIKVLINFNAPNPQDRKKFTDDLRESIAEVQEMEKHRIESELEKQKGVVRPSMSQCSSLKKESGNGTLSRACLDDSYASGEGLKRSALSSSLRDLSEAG
T1 sequence (Q6DN90 512-933): as above

Activity towards BRAG2 after storage ([2]; stock solution in DMSO kept for several months)	SMILES	Displacement of BRAG2 from PIP2-containing liposomes [1]	Inhibition of BRAG2 on liposomes that contain PIP2 compared to PS as sole negatively charged lipid ([2]; lipid composition of liposomes varied)	Inhibition of BRAG2 in the presence of liposomes ([2]; 50 μM compound vs DMSO, myristoylated Arf1, liposomes)
–	COc1ccc2oc(C(F)(F)F)cc(=O)c2c1[N+](=O)[O-] [Bragsin2, 6-methoxy-5-nitro-2-(trifluoromethyl)-4H-chromen-4-one]	did not displace; also recorded: does not impair binding	more efficiently; also recorded: stronger	–
lost activity	Cc1ccc2oc(C(F)(F)F)cc(=O)c2c1[N+](=O)[O-] [Bragsin1, 6-methyl-5-nitro-2-(trifluoromethyl)-4H-chromen-4-one]	–	–	strongly inhibited; also recorded: specifically inhibits

From patent publication US12152012B2, “BRAG2 inhibitors and applications thereof” (CENTRE NATIONAL DE LA RECHERCHE SCIENTIFIQUE, priority 2018, dated 2024)
